Reference: patent US20180202388A1, “PISTON FOR AN INTERNAL COMBUSTION ENGINE AND METHOD FOR PRODUCING THE PISTON FOR AN INTERNAL COMBUSTION ENGINE” (FEDERAL-MOGUL NURNBERG GMBH, priority 2015, published 2018)
“Also recorded” adds a separate entry of the source. Values belong to the molecule of their own block, whether it stands above or below them.

How the values were obtained:
[1] = system: human kinases (456 kinases); assay: KINOMEscan in vitro kinase profiling (primary screen binding interactions, % Ctrl, S-score); conditions: for interaction with the 456 kinases tested: screened at 1 μM; for S-score, type S1 / S-score, type S10 / Number of hits/number of kinases, S10 / Number of hits/number of kinases, S1 / Kinase targets, S10 / Kinase targets, S1: tested at 1 μM; for S-score, type S1: S(1)=(number of kinases with % Ctrl<1)/(number of kinases tested); for S-score, type S10: S(10)=(number of kinases with % Ctrl <10)/(number of kinases tested); for Number of hits/number of kinases, S10: hits with % Ctrl <10; for Number of hits/number of kinases, S1: hits with % Ctrl<1; for Kinase targets, S10: kinases with % Ctrl <10; for Kinase targets, S1: kinases with % Ctrl<1
Method: An in vitro kinase profiling was conducted in order to evidence the absence of protein kinase inhibition by the compounds of the invention.
DiscoveRx (Ambit Biosciences) has developed a high-throughput system (KINOMEscan™) for screening of compounds against large numbers of human kinases (456 kinases).
The compounds of the invention were screened at the concentration of 1 μM, and results for primary screen binding interactions were reported as percent control (% Ctrl), where lower numbers indicate stronger hits. DMSO is used as a negative control (100% Ctrl) while a high affinity compound is used as a positive control (0% Ctrl). % Ctrl is calculated as follow: […]
Selectivity Score or S-score is a quantitative measure of compound selectivity. It is calculated by dividing the number of kinases that compounds bind to by the total number of distinct kinases tested, excluding mutant variants. S(10)=(number of kinases with % Ctrl <10)/(number of kinases tested), S(1)=(number of kinases with % Ctrl<1)/(number of kinases tested).

[2] = system: CALU6; assay: CellTiter-Blue cell-based survival/proliferation assay, CALU6; conditions: Homo sapiens, Calu-6, Lung, 48 h
Method: (§1) Compounds of formula (I) were tested against a panel of about 34 human tumor cell lines representing 17 cancer type, namely leukemia (represented by 1 cell line), lymphoma (4 cell lines), myeloma (1 cell line), colorectal (2 cell lines), head and neck (3 cell lines), lung (3 cell lines), melanoma (2 cell lines), pancreas (2 cell lines), prostate (2 cell lines), ovary (2 cell lines) breast (2 cell lines), kidney (2 cell lines), stomach (2 cell lines), liver (2 cell lines), glioblastoma (2 cell lines), osteosarcoma (1 cell line), Ewing Sarcoma (1 cell line).
(§2) CellTiter-Blue cell-based survival/proliferation assay (Promega G8080) was performed on tumor cell lines. A total of 1.10^4 cells/well/50 μl were seeded in a 96-wells plate. Treatment was initiated by addition of a 2× drug solution of 1/10 serial dilutions ranging from 0 to 10 μM. Cells were grown for 48 h at 37° C. and then incubated with 10 μl/well of Promega CellTiter-Bleue reagent for 4 h at 37° C. The amount of resorufin dye formed was quantified by its fluorescence emission at 590 nm using a scanning multiwell spectrophotometer (OPTIMA, BMG labtech, France). A blank well without cells was used as a background control for the spectrophotometer.

[3] = system: SW579; assay: CellTiter-Blue cell-based survival/proliferation assay, SW579; conditions: Homo sapiens, Head & Neck, 48 h
Method: as §1, §2

[4] = system: BXPC3; assay: CellTiter-Blue cell-based survival/proliferation assay, BXPC3; conditions: Homo sapiens, BXPC-3, Pancreas, 48 h
Method: as §1, §2

[5] = system: HEP2; assay: CellTiter-Blue cell-based survival/proliferation assay, HEP2; conditions: Homo sapiens, HEp-2, Head & Neck, 48 h
Method: as §1, §2

[6] = system: H1299; assay: CellTiter-Blue cell-based survival/proliferation assay, H1299; conditions: Homo sapiens, NCI-H1299, Lung, 48 h
Method: as §1, §2

[7] = system: PANC1; assay: CellTiter-Blue cell-based survival/proliferation assay, PANC1; conditions: Homo sapiens, PANC-1; Pancreas; PANC_1; 48 h
Method: as §1, §2

[8] = system: OPM2; assay: CellTiter-Blue cell-based survival/proliferation assay, OPM2 (myeloma); conditions: Homo sapiens, OPM-2; OPM2 cells, 48 h; read-out: Anti-tumoral activity (measured IC50), Myeloma OPM2
Method: as §1, §2

[9] = system: BT20; assay: CellTiter-Blue cell-based survival/proliferation assay, BT20; conditions: Homo sapiens, BT-20, Breast, 48 h
Method: as §1, §2

[10] = system: TOV112D; assay: CellTiter-Blue cell-based survival/proliferation assay, TOV112D; conditions: Homo sapiens, Ovary, 48 h
Method: as §1, §2

[11] = system: DLD1; assay: CellTiter-Blue cell-based survival/proliferation assay, DLD1; conditions: Homo sapiens, DLD-1; Colorectal; DLD_1; 48 h
Method: as §1, §2

[12] = system: CLS354; assay: CellTiter-Blue cell-based survival/proliferation assay, CLS354; conditions: Homo sapiens, CLS-354; Head & Neck; CLS354_4; 48 h
Method: as §1, §2

[13] = system: HEPG2; assay: CellTiter-Blue cell-based survival/proliferation assay, HEPG2; conditions: Homo sapiens, Liver, 48 h
Method: as §1, §2

[14] = system: ACHN; assay: CellTiter-Blue cell-based survival/proliferation assay, ACHN; conditions: Homo sapiens, Kidney, 48 h
Method: as §1, §2

[15] = system: DU145; assay: CellTiter-Blue cell-based survival/proliferation assay, DU145; conditions: Homo sapiens, DU-145, Prostate, 48 h
Method: as §1, §2

[16] = system: PC3; assay: CellTiter-Blue cell-based survival/proliferation assay, PC3; conditions: Homo sapiens, PC-3, Prostate, 48 h
Method: as §1, §2

[17] = system: A498; assay: CellTiter-Blue cell-based survival/proliferation assay, A498; conditions: Homo sapiens, Kidney, 48 h
Method: as §1, §2

[18] = system: AGS; assay: CellTiter-Blue cell-based survival/proliferation assay, AGS; conditions: Homo sapiens, Stomach, 48 h
Method: as §1, §2

[19] = system: MDAMB231; assay: CellTiter-Blue cell-based survival/proliferation assay, MDAMB231; conditions: Homo sapiens, MDA-MB-231, Breast, 48 h
Method: as §1, §2

[20] = system: HGC27; assay: CellTiter-Blue cell-based survival/proliferation assay, HGC27; conditions: Homo sapiens, HGC-27, Stomach, 48 h
Method: as §1, §2

[21] = system: A549; assay: CellTiter-Blue cell-based survival/proliferation assay, A549; conditions: Homo sapiens, Lung, 48 h
Method: as §1, §2

[22] = system: MESSA; assay: CellTiter-Blue cell-based survival/proliferation assay, MESSA; conditions: Homo sapiens, MES-SA, Ovary, 48 h
Method: as §1, §2

[23] = system: PLCPRF5; assay: CellTiter-Blue cell-based survival/proliferation assay, PLCPRF5; conditions: Homo sapiens, PLC-PRF-5; Liver; PLC_PRF5; 48 h
Method: as §1, §2

[24] = system: HCT116; assay: CellTiter-Blue cell-based survival/proliferation assay, HCT116; conditions: Homo sapiens, HCT-116, Colorectal, 48 h
Method: as §1, §2

[25] = system: HL60; assay: CellTiter-Blue cell-based survival/proliferation assay, HL60 (leukemia); conditions: Homo sapiens, HL-60; HL60 cells, 48 h; read-out: Anti-tumoral activity (measured IC50), Leukemia HL60
Method: as §1, §2

interaction with the 456 kinases tested [1]: do not efficiently interact
S-score, type S1 [1]: 0.002
S-score, type S10 [1]: 0.009
Number of hits/number of kinases, S10 [1]: 4/456
Number of hits/number of kinases, S1 [1]: 1/456
Kinase targets, S1 [1]: PDGFRB
SMILES: CCOCc1ccc(C)c(Nc2nc(-c3ccc(N4CCNC4=O)cc3)cs2)c1 [Example 003, 1-{4-[2-(5-Ethoxymethyl-(2-methyl-phenylamino))-thiazol-4-yl]-phenyl}-imidazolidin-2-one]
Kinase targets, S10 [1]: KIT, KIT V559D,; also recorded: KIT L576P

SMILES: CCOCc1ccc(C)c(Nc2nc(-c3ccc(-n4cccn4)nc3)cs2)c1 [Example 062, 4-(6-(1H-pyrazol-1-yl)pyridin-3-yl)-N-(5-(ethoxymethyl)-2-methylphenyl)thiazol-2-amine]
IC50 [2]: > 1000 nM
IC50 [3]: > 1000 nM
IC50 [4]: > 1000 nM
IC50 [5]: 500 to 1000 nM
IC50 [6]: > 1000 nM
IC50 [7]: > 1000 nM
IC50 [8]: 100 to 500 nM
IC50 [9]: > 1000 nM
IC50 [10]: ≤ 100 nM
IC50 [11]: > 1000 nM
IC50 [12]: 500 to 1000 nM
IC50 [13]: > 1000 nM
IC50 [14]: > 1000 nM
IC50 [15]: > 1000 nM
IC50 [16]: > 1000 nM
IC50 [17]: > 1000 nM
IC50 [18]: > 1000 nM
IC50 [19]: > 1000 nM
IC50 [20]: > 1000 nM
IC50 [21]: > 1000 nM
IC50 [22]: > 1000 nM
IC50 [23]: > 1000 nM
IC50 [24]: > 1000 nM
IC50 [25]: 100 to 500 nM

interaction with the 456 kinases tested [1]: do not efficiently interact
S-score, type S1 [1]: 0.000
S-score, type S10 [1]: 0.000
Number of hits/number of kinases, S10 [1]: 0/456
Number of hits/number of kinases, S1 [1]: 0/456
Kinase targets, S1 [1]: None
SMILES: CCOCc1ccc(C)c(Nc2ncc(-c3ccc(N4CCNC4=O)cc3)o2)c1 [Example 006, 1-{4-[2-(5-Ethoxymethyl-(2-methyl-phenylamino))-oxazol-5-yl]-phenyl}-imidazolidin-2-one]

interaction with the 456 kinases tested [1]: do not efficiently interact
S-score, type S1 [1]: 0.000
S-score, type S10 [1]: 0.002
Number of hits/number of kinases, S10 [1]: 1/456
Number of hits/number of kinases, S1 [1]: 0/456
Kinase targets, S10 [1]: CDKL3
SMILES: CCOCc1ccc(C)c(Nc2ncc(-c3ccc(-n4cccn4)cc3)o2)c1 [Example 033, (5-Ethoxymethyl-2-methyl-phenyl)-[5-(4-pyrazol-1-yl-phenyl)-oxazol-2-yl]-amine]
